Results taken from patent publication US9682961B2, “Quinazoline derivative” (CARNA BIOSCIENCES, INC., priority 2013, dated 2017).
pIC50: −log10 of the molar value.

Test system: Wnt/β-catenin signaling pathway
Experiment: TCF-luciferase reporter gene assay (Wnt-3a stimulated HEK 293 cells)
Type: cell-based
Conditions: Homo sapiens, HEK293, Wnt-3a stimulation, read-out: Inhibitory activity against the Wnt/β-catenin signaling pathway
Method: Evaluation of inhibitory activity of the compounds of the present invention against the Wnt/β-catenin signaling pathway was performed by evaluating the inhibitory activity of the compounds of the present invention against the Wnt/β-catenin signaling pathway activated by the Wnt-3a ligand using a commercially available TCF-luciferase reporter gene assay system.
In a T75 flask, HEK 293 cells (ATCC No. CRL-1573) were added to a DMEM medium (manufactured by NACALAI TESQUE, INC., No. 08459-35) supplemented with 10% FBS (AusGeneX PTY LTD.) and 1% Penicillin/Streptomycin (NACALAI TESQUE, INC.). The cells in the flask were cultured in a 5% CO2 incubator.
The cultured HEK 293 cells were diluted with a DMEM medium supplemented with only 10% FBS so as to have a cell concentration of 2×10^5 cells/mL, and 100 μL each of the diluted cells were seeded into respective wells of 96-well plates (PerkinElmer Inc., ViewPlate No. 6005181), followed by culturing overnight in the 5% CO2 incubator. To an OptiMEM medium (Invitrogen® No. 11058), pGL4.49 [luc2p/TCF-LEF-RE/Hygro] plasmid DNA (Promega Corporation) and FuGENE® HD (Promega No. E2691) were added so as to have concentrations of 1 μg/mL and 3 μg/mL, respectively, to prepare a transfection solution as described in the protocol attached to the reagent. To the respective wells containing the HEK 293 cells cultured overnight, 100 μL each of the transfection solution was added gently, followed by culturing overnight in the 5% CO2 incubator to perform transfection.
To a DMEM medium, 0.5% charcoal/dextran treated Fetal Bovine Serum (Thermo Scientific No. SH30068.02) and LiCl (Sigma-Aldrich No. L9650) were added to prepare a LiCl-containing medium (final concentration of LiCl: 10 mM). The medium in the respective wells of the HEK 293 cells cultured overnight and transfected with a reporter gene was removed by decantation. The LiCl-containing medium (90 μL) was added gently to each well, followed by culturing overnight in the 5% CO2 incubator.
A DMSO stock solution of the compound to be tested was diluted 100-fold with a LiCl-containing medium so as to prepare a solution of the compound to be tested, which is 10 times the test concentration. Further, Recombinant Mouse Wnt-3a (R&D Systems, Inc. #1324-WN) was dissolved in a 0.1% BSA-PBA solution so as to have a concentration of 40 μg/mL, and the resultant solution was diluted with a LiCl-containing medium so as to have a concentration of 100 ng/mL, to prepare a Wnt-3a solution. To each well of the HEK 293 cells cultured overnight in the LiCl-containing medium, 10 μL each of the solution of the compound to be tested was added, followed by culturing in the 5% CO2 incubator for 2 hours (the final concentration of the compound to be tested: 3-0.03 μM). Thereafter, 10 μL each of the Wnt-3a solution was added to the respective wells, followed by further culturing for 5 hours.
Using ONE-Glo™ Luciferase Assay System (Promega Corporation, No. E6110), the luciferase activity of the cells in the wells was measured by a microplate reader (Synergy H1, BioTek Instruments, Inc.) An IC50 value was calculated from the luminescence intensity of each compound concentration, supposing that the luminescence intensity of a group with no addition of the compound and with Wnt-3a stimulation was 100%, and that the luminescence intensity of a group with no addition of the compound and with no Wnt-3a stimulation was 0%.

In the case of O[C@H]1CC[C@@H](Oc2cccc3cnc(Nc4ccc5nc[nH]c5c4)nc23)CC1 [Example 1, cis-4-({2-[(1H-benzo[d]imidazol-6-yl)amino]quinazolyn-8-yl}oxy)cyclohexanol], the pIC50 was > 6.52.
